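Cells were grown in 96-well plates and exposed to each compound for 48 hours at five concentrations; endpoints were interpolated linearly between bracketing concentrations, or set to the highest concentration if not reached. TGI marks complete inhibition of growth.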
Tests used:
Experiment in all cases: inhibition of tumour cell growth, NCI panel, 48 h
SF-295 CNS = system: SF-295 CNS
BT-549 breast = system: BT-549 breast
OVCAR-5 ovarian = system: OVCAR-5 ovarian
SNB-75 CNS = system: SNB-75 CNS
RPMI-8226 leukemia = system: RPMI-8226 leukemia
COLO 205 colon = system: COLO 205 colon
MDA-N = system: MDA-N
OVCAR-8 ovarian = system: OVCAR-8 ovarian
UACC-62 melanoma = system: UACC-62 melanoma
KM12 colon = system: KM12 colon
SN12C renal = system: SN12C renal
MDA-MB-435 = system: MDA-MB-435
HCT-116 colon = system: HCT-116 colon
HS 578T breast = system: HS 578T breast
UACC-257 melanoma = system: UACC-257 melanoma
SNB-19 CNS = system: SNB-19 CNS
NCI/ADR-RES ovarian = system: NCI/ADR-RES ovarian
HL-60(TB) leukemia = system: HL-60(TB) leukemia
PC-3 prostate = system: PC-3 prostate
NCI-H522 lung = system: NCI-H522 lung
HCT-15 colon = system: HCT-15 colon
MCF7 breast = system: MCF7 breast
SK-MEL-5 melanoma = system: SK-MEL-5 melanoma
HOP-92 NSCLC = system: HOP-92 NSCLC
SW-620 colon = system: SW-620 colon
HT29 colon = system: HT29 colon
OVCAR-4 ovarian = system: OVCAR-4 ovarian
A549 NSCLC = system: A549 NSCLC
A498 renal = system: A498 renal
HCC-2998 colon = system: HCC-2998 colon
NCI-H460 lung = system: NCI-H460 lung
NCI-H226 lung = system: NCI-H226 lung
SK-OV-3 ovarian = system: SK-OV-3 ovarian
SR leukemia = system: SR leukemia
HOP-62 NSCLC = system: HOP-62 NSCLC
M14 melanoma = system: M14 melanoma
MALME-3M melanoma = system: MALME-3M melanoma
NCI-H23 lung = system: NCI-H23 lung
UO-31 renal = system: UO-31 renal
DU-145 prostate = system: DU-145 prostate
K-562 leukemia = system: K-562 leukemia
MDA-MB-231 breast = system: MDA-MB-231 breast
ACHN renal = system: ACHN renal
SF-268 CNS = system: SF-268 CNS
OVCAR-3 ovarian = system: OVCAR-3 ovarian
RXF 393 renal = system: RXF 393 renal
SK-MEL-28 melanoma = system: SK-MEL-28 melanoma
U251 CNS = system: U251 CNS
IGROV1 ovarian = system: IGROV1 ovarian
SK-MEL-2 melanoma = system: SK-MEL-2 melanoma
CCRF-CEM leukemia = system: CCRF-CEM leukemia
TK-10 renal = system: TK-10 renal
LOX IMVI melanoma = system: LOX IMVI melanoma
SF-539 CNS = system: SF-539 CNS
CAKI-1 renal = system: CAKI-1 renal
786-0 renal = system: 786-0 renal
T-47D breast = system: T-47D breast
EKVX NSCLC = system: EKVX NSCLC
MOLT-4 leukemia = system: MOLT-4 leukemia

Structure (SMILES): O=C(O)CCC1(C(=O)O)CCC(=O)c2ccccc21 (stereo not given)
- TGI (SF-295 CNS): > 100 µM
- TGI (BT-549 breast): > 100 µM
- TGI (OVCAR-5 ovarian): > 100 µM
- TGI (SNB-75 CNS): > 100 µM
- TGI (RPMI-8226 leukemia): > 100 µM
- TGI (COLO 205 colon): > 100 µM
- TGI (MDA-N): > 100 µM
- TGI (OVCAR-8 ovarian): > 100 µM
- TGI (UACC-62 melanoma): > 100 µM
- TGI (KM12 colon): > 100 µM
- TGI (SN12C renal): > 100 µM
- TGI (MDA-MB-435): > 100 µM
- TGI (HCT-116 colon): > 100 µM
- TGI (HS 578T breast): > 100 µM
- TGI (UACC-257 melanoma): > 100 µM
- TGI (SNB-19 CNS): > 100 µM
- TGI (NCI/ADR-RES ovarian): > 100 µM
- TGI (HL-60(TB) leukemia): > 100 µM
- TGI (PC-3 prostate): > 100 µM
- TGI (NCI-H522 lung): > 100 µM
- TGI (HCT-15 colon): > 100 µM
- TGI (MCF7 breast): > 100 µM
- TGI (SK-MEL-5 melanoma): > 100 µM
- TGI (HOP-92 NSCLC): > 100 µM
- TGI (SW-620 colon): > 100 µM
- TGI (HT29 colon): > 100 µM
- TGI (OVCAR-4 ovarian): > 100 µM
- TGI (A549 NSCLC): > 100 µM
- TGI (A498 renal): > 100 µM
- TGI (HCC-2998 colon): > 100 µM
- TGI (NCI-H460 lung): > 100 µM
- TGI (NCI-H226 lung): > 100 µM
- TGI (SK-OV-3 ovarian): > 100 µM
- TGI (SR leukemia): > 100 µM
- TGI (HOP-62 NSCLC): > 100 µM
- TGI (M14 melanoma): > 100 µM
- TGI (MALME-3M melanoma): > 100 µM
- TGI (NCI-H23 lung): > 100 µM
- TGI (UO-31 renal): > 100 µM
- TGI (DU-145 prostate): > 100 µM
- TGI (K-562 leukemia): > 100 µM
- TGI (MDA-MB-231 breast): > 100 µM
- TGI (ACHN renal): > 100 µM
- TGI (SF-268 CNS): > 100 µM
- TGI (OVCAR-3 ovarian): > 100 µM
- TGI (RXF 393 renal): > 100 µM
- TGI (SK-MEL-28 melanoma): > 100 µM
- TGI (U251 CNS): > 100 µM
- TGI (IGROV1 ovarian): > 100 µM
- TGI (SK-MEL-2 melanoma): > 100 µM
- TGI (CCRF-CEM leukemia): > 100 µM
- TGI (TK-10 renal): > 100 µM
- TGI (LOX IMVI melanoma): > 100 µM
- TGI (SF-539 CNS): > 100 µM
- TGI (CAKI-1 renal): > 100 µM
- TGI (786-0 renal): > 100 µM
- TGI (T-47D breast): > 100 µM

Structure (SMILES): CCOC(=O)/C=C/C1OC(C)(C)OC1/C=C/C(=O)OCC (stereo not given)
- TGI (SF-295 CNS): > 100 µM
- TGI (EKVX NSCLC): 94.9 µM
- TGI (BT-549 breast): > 100 µM
- TGI (OVCAR-5 ovarian): > 100 µM
- TGI (SNB-75 CNS): > 100 µM
- TGI (RPMI-8226 leukemia): 47.7 µM
- TGI (COLO 205 colon): > 100 µM
- TGI (MDA-N): > 100 µM
- TGI (OVCAR-8 ovarian): 82.7 µM
- TGI (UACC-62 melanoma): > 100 µM
- TGI (KM12 colon): 70.7 µM
- TGI (SN12C renal): > 100 µM
- TGI (MDA-MB-435): > 100 µM
- TGI (HCT-116 colon): > 100 µM
- TGI (HS 578T breast): > 100 µM
- TGI (UACC-257 melanoma): > 100 µM
- TGI (SNB-19 CNS): > 100 µM
- TGI (MOLT-4 leukemia): 63.3 µM
- TGI (NCI/ADR-RES ovarian): > 100 µM
- TGI (PC-3 prostate): > 100 µM
- TGI (NCI-H522 lung): 51.1 µM
- TGI (HCT-15 colon): 64.2 µM
- TGI (MCF7 breast): > 100 µM
- TGI (SK-MEL-5 melanoma): > 100 µM
- TGI (HOP-92 NSCLC): 41.8 µM
- TGI (SW-620 colon): 49.2 µM
- TGI (HT29 colon): 57.6 µM
- TGI (OVCAR-4 ovarian): > 100 µM
- TGI (A549 NSCLC): > 100 µM
- TGI (A498 renal): > 100 µM
- TGI (HCC-2998 colon): 47.4 µM
- TGI (NCI-H460 lung): 48.9 µM
- TGI (NCI-H226 lung): > 100 µM
- TGI (SK-OV-3 ovarian): > 100 µM
- TGI (SR leukemia): 43.3 µM
- TGI (HOP-62 NSCLC): > 100 µM
- TGI (M14 melanoma): > 100 µM
- TGI (MALME-3M melanoma): > 100 µM
- TGI (NCI-H23 lung): > 100 µM
- TGI (UO-31 renal): > 100 µM
- TGI (DU-145 prostate): > 100 µM
- TGI (K-562 leukemia): 48.4 µM
- TGI (MDA-MB-231 breast): > 100 µM
- TGI (ACHN renal): > 100 µM
- TGI (SF-268 CNS): > 100 µM
- TGI (RXF 393 renal): > 100 µM
- TGI (SK-MEL-28 melanoma): 87.7 µM
- TGI (U251 CNS): > 100 µM
- TGI (IGROV1 ovarian): > 100 µM
- TGI (SK-MEL-2 melanoma): > 100 µM
- TGI (CCRF-CEM leukemia): 57.7 µM
- TGI (TK-10 renal): > 100 µM
- TGI (LOX IMVI melanoma): > 100 µM
- TGI (SF-539 CNS): > 100 µM
- TGI (CAKI-1 renal): 54.7 µM
- TGI (786-0 renal): > 100 µM
- TGI (T-47D breast): > 100 µM

Structure (SMILES): CC(C)C(=O)NCC[C@@H](CNC(=O)OC(C)(C)C)NC(=O)OC(C)(C)C
- TGI (SF-295 CNS): > 100 µM
- TGI (EKVX NSCLC): > 100 µM
- TGI (BT-549 breast): > 100 µM
- TGI (OVCAR-5 ovarian): > 100 µM
- TGI (SNB-75 CNS): > 100 µM
- TGI (COLO 205 colon): > 100 µM
- TGI (MDA-N): > 100 µM
- TGI (OVCAR-8 ovarian): > 100 µM
- TGI (UACC-62 melanoma): > 100 µM
- TGI (KM12 colon): > 100 µM
- TGI (SN12C renal): > 100 µM
- TGI (MDA-MB-435): > 100 µM
- TGI (HCT-116 colon): > 100 µM
- TGI (HS 578T breast): > 100 µM
- TGI (UACC-257 melanoma): > 100 µM
- TGI (SNB-19 CNS): > 100 µM
- TGI (MOLT-4 leukemia): > 100 µM
- TGI (NCI/ADR-RES ovarian): > 100 µM
- TGI (PC-3 prostate): > 100 µM
- TGI (NCI-H522 lung): > 100 µM
- TGI (HCT-15 colon): > 100 µM
- TGI (MCF7 breast): > 100 µM
- TGI (SK-MEL-5 melanoma): > 100 µM
- TGI (HOP-92 NSCLC): > 100 µM
- TGI (SW-620 colon): > 100 µM
- TGI (HT29 colon): > 100 µM
- TGI (OVCAR-4 ovarian): > 100 µM
- TGI (A549 NSCLC): > 100 µM
- TGI (A498 renal): > 100 µM
- TGI (HCC-2998 colon): > 100 µM
- TGI (NCI-H460 lung): > 100 µM
- TGI (NCI-H226 lung): > 100 µM
- TGI (SK-OV-3 ovarian): > 100 µM
- TGI (SR leukemia): > 100 µM
- TGI (HOP-62 NSCLC): > 100 µM
- TGI (M14 melanoma): > 100 µM
- TGI (MALME-3M melanoma): > 100 µM
- TGI (NCI-H23 lung): > 100 µM
- TGI (UO-31 renal): > 100 µM
- TGI (DU-145 prostate): > 100 µM
- TGI (K-562 leukemia): > 100 µM
- TGI (MDA-MB-231 breast): > 100 µM
- TGI (ACHN renal): > 100 µM
- TGI (SF-268 CNS): > 100 µM
- TGI (OVCAR-3 ovarian): > 100 µM
- TGI (RXF 393 renal): > 100 µM
- TGI (SK-MEL-28 melanoma): > 100 µM
- TGI (U251 CNS): > 100 µM
- TGI (IGROV1 ovarian): > 100 µM
- TGI (SK-MEL-2 melanoma): > 100 µM
- TGI (CCRF-CEM leukemia): > 100 µM
- TGI (TK-10 renal): > 100 µM
- TGI (SF-539 CNS): > 100 µM
- TGI (CAKI-1 renal): > 100 µM
- TGI (786-0 renal): > 100 µM
- TGI (T-47D breast): > 100 µM

Reference: PubChem BioAssay (NCI)
